Reference: patent US10017475B2, “Anti-vasculature and anti-tubulin combretastatin analogs for treatment of cancer” (XAVIER UNIVERSITY OF LOUISIANA, priority 2014, dated 2018)
Read-outs that look alike come from different tables or passages of the source.

Assays:
[1] = system: HeLa; experiment: Antiproliferative assay (resazurin, 72 h); assay type: cell-based, human; conditions: 72 h incubation, read-out: Growth Inhibition IC50 HeLa
Method: (§1) Cells were seeded in 96-well plates (5×10^3 cells/well) containing 50 μL growth medium for 24 hours. After medium removal, 100 μL fresh medium containing individual analog compound at different concentrations was added to each well and incubated at 37° C. for 72 h. […] After 72 h of incubation, 20 μL of resazurin was added for 2 h before recording fluorescence at 560 nm (excitation) and 590 nm (emission) using a Victor microtiter plate fluorimeter (Perkin-Elmer, USA).

[2] = system: A549; experiment: Antiproliferative assay (resazurin, 72 h); assay type: cell-based, human; conditions: A549, 72 h incubation, read-out: Growth Inhibition IC50 A549
Method: as §1

[3] = system: MDA-MB-231; experiment: Antiproliferative assay (resazurin, 72 h); assay type: cell-based, human; conditions: MDA-MB-231, 72 h incubation, read-out: Growth Inhibition IC50 MDA-MB-231
Method: as §1

[4] = system: bovine brain tubulin; experiment: Tubulin polymerization assay; conditions: compared to vehicle (DMSO)
Method: It is based on the principal that light is scattered by microtubules to an extent that is proportional to the concentration of the microtubule polymer. Compounds that interact with tubulin will alter the polymerization of tubulin, and this can be detected using a spectrophotometer. The absorbance at 340 nm at 37° C. is monitored. The experimental procedure of the assay was performed as described in version 8.2 of the tubulin polymerization assay kit manual. Varying concentrations of compounds were preincubated with 10 μM bovine brain tubulin in glutamate buffer at 30° C. and then cooled to 0° C. After the addition of 0.4 mM GTP, the mixtures were transferred to 0° C. cuvettes in a recording spectrophotometer and warmed to 30° C. Tubulin assembly was followed turbidimetrically at 350 nm.
The reaction was initiated by the addition of tubulin to a final concentration of 3.0 mg/mL

| SMILES | melting point | IC50 ([1]; Homo sapiens, 72 h) [µM] | IC50 ([2]; Homo sapiens, A549, 72 h) [µM] | IC50 ([3]; Homo sapiens, MDA-MB-231, 72 h) [µM] | also measured |
| --- | --- | --- | --- | --- | --- |
| COc1cc(-c2cccc(Br)n2)cc(OC)c1OC [Compound 2a, 2-Bromo-6-(3,4,5-trimethoxyphenyl)pyridine] | 100 to 102 °C | 12 | 9 | 6 |  |
| COc1ccc(-c2cccc(Br)n2)cc1OC [Compound 2b, 2-Bromo-6-(3,4-dimethoxyphenyl)pyridine] |  | > 50 | > 25 | > 25 |  |
| COc1ccc(-c2cccc(Br)n2)c(OC)c1 [Compound 2c, 2-Bromo-6-(2,4-dimethoxyphenyl)pyridine] |  | > 50 | > 50 | > 100 |  |
| COc1ccc(-c2cccc(Br)n2)cc1 [Compound 2d, 2-Bromo-6-(4-methoxyphenyl)pyridine] | 99 to 100 °C | 2 | 2 | 10 |  |
| COc1cc(-c2ccc(Br)cn2)cc(OC)c1OC [Compound 2e, 5-Bromo-2-(3,4,5-trimethoxyphenyl)pyridine] | 49 to 50 °C | 14 | > 25 | 12 |  |
| COc1ccc(-c2ccc(Br)cn2)c(OC)c1 [Compound 2f, 5-Bromo-2-(2,4-dimethoxyphenyl)pyridine] |  | > 25 | > 100 | > 100 |  |
| COc1cc(-c2cccc(-c3cc(OC)c(OC)c(OC)c3)n2)cc(OC)c1OC [Compound 3a, 2,6-Bis(3,4,5-trimethoxyphenyl)pyridine] |  | 1 | > 50 | 11 |  |
| COc1ccc(-c2cccc(-c3ccc(OC)c(OC)c3)n2)cc1OC [Compound 3b, 2,6-Bis(3,4-dimethoxyphenyl)pyridine] | 140 to 141 °C | > 25 | > 50 | > 50 |  |
| COc1ccc(-c2cccc(-c3ccc(OC)cc3)n2)cc1 [Compound 3d, 2,6-Bis(4-methoxyphenyl)pyridine] | 156 to 158 °C | 2 | > 100 | 9 |  |
| COc1cc(-c2ccc(-c3cc(OC)c(OC)c(OC)c3)nc2)cc(OC)c1OC [Compound 3e, 2,5-Bis(3,4,5-trimethoxyphenyl)pyridine] |  | 2.68 | > 100 | 11 |  |
| COc1cc(-c2ccnc(-c3cc(OC)c(OC)c(OC)c3)c2)cc(OC)c1OC [Compound 3f, 2,4-Bis(3,4,5-trimethoxyphenyl)pyridine] |  |  |  |  | IC50 ([1]; Homo sapiens): 0.79 µM; IC50 ([2]; Homo sapiens): 7.86 µM; IC50 ([3]; Homo sapiens): 2.63 µM |
| COc1ccc(-c2ccc(-c3ccc(OC)cc3OC)nc2)c(OC)c1 [Compound 3g, 2,5-Bis(2,4-dimethoxyphenyl)pyridine] | 124 to 125 °C | > 50 | > 100 | > 100 |  |
| COc1ccc(-c2ccnc(-c3ccc(OC)cc3OC)c2)c(OC)c1 [Compound 3h, 2,4-Bis(2,4-dimethoxyphenyl)pyridine] | 95 to 97 °C | > 25 | > 50 | > 50 |  |
| COc1cc(-c2cccc(-c3ccc(O)cc3)n2)cc(OC)c1OC [Compound 4a, 4-(6-(3,4,5-Trimethoxyphenyl)pyridin-2-yl)phenol] | 92 to 94 °C (dec.) | 8 | > 25 | 10 |  |
| COc1ccc(-c2cccc(-c3ccc(O)cc3)n2)cc1OC [Compound 4b, 4-(6-(3,4-Dimethoxyphenyl)pyridin-2-yl)phenol] | 70 to 72 °C (dec.) | 0.86 | > 100 | > 50 |  |
| COc1ccc(-c2cccc(-c3ccc(OC)c(OC)c3)n2)cc1 [Compound 4d, 2-(3,4-Dimethoxyphenyl)-6-(4-methoxyphenyl)pyridine] |  | > 25 | > 25 | > 25 |  |
| COc1ccc(-c2cccc(-c3cc(OC)c(OC)c(OC)c3)n2)cc1 [Compound 4f, 2-(4-Methoxyphenyl)-6-(3,4,5-trimethoxyphenyl)pyridine] | 112 to 114 °C | > 50 | > 50 | > 25 |  |
| COc1ccc(-c2ccc(-c3cc(OC)c(OC)c(OC)c3)nc2)cc1OC [Compound 4i, 5-(3,4-Dimethoxyphenyl)-2-(3,4,5-trimethoxyphenyl)pyridine] | 131 to 132 °C | > 25 | > 50 | > 50 |  |
| COc1ccc(-c2cccc(-c3ccc(O)cc3)n2)cc1 [Compound 4j, 4-(6-(4-Methoxyphenyl)pyridine-2-yl)phenol] | 133 to 134 °C | > 50 | > 25 | > 25 |  |
| COc1ccc(-c2cccc(-c3ccc(O)cc3)n2)c(OC)c1 [Compound 4k, 4-(6-(2,4-Dimethoxyphenyl)pyridine-2-yl)phenol] | 112 to 114 °C (dec.) | > 100 | 4.22 | 17.2 |  |
| COc1ccc(-c2cccc(-c3ccccc3OC)n2)c(OC)c1 [Compound 4r, 2-(2,4-Dimethoxyphenyl)-6-(2-methoxyphenyl)pyridine] |  | > 25 | > 50 | > 25 |  |
| COc1ccc(-c2cccc(-c3cc(OC)c(OC)c(OC)c3)n2)cc1O [Compound 4t, 2-Methoxy-5-(6-(3,4,5-trimethoxyphenyl)pyridine-2-yl)phenol] | 129 to 130 °C | 0.0047 | 2.64 | 0.069 | Inhibition of tubulin polymerization ([4]; compound at 1 μM): failed to inhibit tubulin polymerization; Inhibition of tubulin polymerization ([4]; compound at 10 μM): 32% |
| COc1ccc(-c2cccc(-c3ccc(OC)c(O)c3)n2)c(OC)c1 [Compound 5, 2-(2,4-Dimethoxyphenyl)-6-(3-hydroxy-4-methoxyphenyl) pyridin-1-ium chloride] |  |  |  |  | IC50 [1]: 0.0026 µM; IC50 [2]: 0.042 µM; IC50 [3]: 0.0054 µM |

Continued, in another order:

| melting point | IC50 ([1]; Homo sapiens, 72 h) [µM] | IC50 ([2]; Homo sapiens, A549, 72 h) [µM] | IC50 ([3]; Homo sapiens, MDA-MB-231, 72 h) [µM] | SMILES | also measured |
| --- | --- | --- | --- | --- | --- |
| 113 to 114 °C | 0.011 | 0.079 | 0.075 | COc1ccc(-c2cccc(-c3ccc(OC)cc3OC)n2)c(OC)c1 [Compound 3c, 2,6-Bis(2,4-dimethoxyphenyl)pyridine] |  |
| 107 to 108 °C | 0.026 | > 50 | 2.49 | COc1ccc(-c2cccc(-c3cc(OC)c(OC)c(OC)c3)n2)cc1OC [Compound 4c, 2-(3,4-Dimethoxyphenyl)-6-(3,4,5-trimethoxyphenyl)pyridine] |  |
| 100 to 101 °C | > 50 | > 25 | 13 | COc1ccc(-c2cccc(-c3ccc(OC)c(OC)c3)n2)c(OC)c1 [Compound 4e, 2-(2,4-Dimethoxyphenyl)-6-(3,4-dimethoxyphenyl)pyridine] |  |
| 115 to 117 °C | 4.43 | 0.69 | > 100 | COc1ccc(-c2cccc(-c3cc(OC)c(OC)c(OC)c3)n2)c(OC)c1 [Compound 4g, 2-(2,4-Dimethoxyphenyl)-6-(3,4,5-trimethoxyphenyl)pyridine] |  |
|  | > 50 | > 25 | > 25 | COc1cc(OC)cc(-c2cccc(-c3ccc(OC)cc3OC)n2)c1 [Compound 4l, 2-(2,4-Dimethoxyphenyl)-6-(3,5-dimethoxyphenyl)pyridine] |  |
|  | 0.034 | 0.33 | 0.034 | COc1ccc(-c2cccc(-c3cc(OC)ccc3OC)n2)c(OC)c1 [Compound 4m, 2-(2,4-Dimethoxyphenyl)-6-(2,5-dimethoxyphenyl)pyridine] |  |
| 79 to 80 °C | > 52 | > 51 | > 50 | COc1ccc(-c2cccc(-c3cccc(OC)c3OC)n2)c(OC)c1 [Compound 4n, 2-(2,3-Dimethoxyphenyl)-6-(2,4-dimethoxyphenyl)pyridine] |  |
| 155 to 156 °C | > 50 | > 100 | > 100 | COc1ccc(-c2cccc(-c3c(OC)cccc3OC)n2)c(OC)c1 [Compound 4o, 2-(2,4-Dimethoxyphenyl)-6-(2,6-dimethoxyphenyl)pyridine] |  |
|  | 0.067 | 0.56 | 9.02 | COc1cccc(-c2cccc(-c3ccc(OC)cc3OC)n2)c1 [Compound 4p, 2-(2,4-Dimethoxyphenyl)-6-(3-methoxyphenyl)pyridine] |  |
| 144 to 145 °C | > 25 | > 50 | > 50 | COc1ccc(-c2cccc(-c3c(OC)cc(OC)cc3OC)n2)c(OC)c1 [Compound 4q, 2-(2,4-Dimethoxyphenyl)-6-(2,4,6-trimethoxyphenyl)pyridine] |  |
